These results are taken from ChEMBL document CHEMBL1201862, “PubChem BioAssay data set” (2004).

What all share (experiment): growth of human tumour cells (NCI), 48 h
Assay [1] relates to Malme-3M.
Assay [2] concerns EKVX.
The subject of assay [3] is OVCAR-5.
Assay [4] relates to A549.
Assay [5] concerns SNB-75.
Assay [6] concerns HT-29.
Assay [7] concerns SK-MEL-28.
For assay [8], the system named is ACHN.
Assay [9] has as its system U-251.
Assay [10] deals with NCI-H460.
Assay [11] relates to TK-10.
In assay [12] the test system is NCI-H226.
The test system of assay [13] is HOP-62.
Assay [14] concerns OVCAR-8.
Assay [15] relates to LOX IMVI.
Assay [16] deals with OVCAR-3.
Assay [17] relates to HOP-92.

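1) Cells in 96-well plates. 2) Compound, 48 h, 5 concentrations. 3) Linear interpolation between surrounding doses. 4) Unreached endpoint = highest concentration. GI50 is the concentration that inhibits growth by half.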 Active and inactive are the calls of the source. Cut-off read from the data, not from the text of the source: active = GI50 up to about 1.1 µM and inactive = higher.

Regarding `CCOC(=O)c1cc(OC(=O)CC)c2c(OC)ccc(OC)c2c1`, the GI50 was > 100 µM (inactive) in assay [1]; 35.8 µM (inactive) in assay [2]; 46.1 µM (inactive) in assay [3]; > 100 µM (inactive) in assay [4]; 11.4 µM (inactive) in [5]; > 10 µM (inactive) in assay [6]. Further, the GI50 in assay [7] is > 100 µM (inactive); in assay [8] it was 35.2 µM (inactive); in assay [9], 53.6 µM (inactive); in assay [10], > 100 µM (inactive); in assay [11] it was 47.1 µM (inactive).
Take `CC(C)(C)S(=O)OC12CC3CC(CC(C3)C1)C2` (stereo not drawn): the GI50 in assay [12], in assay [1], in assay [13], in [2], in assay [3] and in [4] was > 100 µM (inactive) each time. Also, the GI50 in assay [14] is > 100 µM (inactive); in [15], > 100 µM (inactive); in assay [5] it was 33.8 µM (inactive); in [6] it was > 100 µM (inactive); in [16], > 100 µM (inactive); in assay [7], > 100 µM (inactive). Besides, the GI50 in [8], in assay [9], in assay [10] and in [11] was > 100 µM (inactive) throughout.
Take `CN(C)c1ccc(/C=C(\NC(=O)c2ccccc2)c2nc3cncnc3[nH]2)cc1`: the GI50 in assay [1], in assay [2], in assay [3], in assay [4], in [14] and in assay [6] was > 100 µM (inactive) throughout. Besides, the GI50 in assay [16] was > 100 µM (inactive); in [17] it was 41.5 µM (inactive); in [7], > 100 µM (inactive); in [8] it was > 100 µM (inactive); in [9] it was > 100 µM (inactive); in assay [11], > 100 µM (inactive).
Turning to `COc1ccc(/C(=N/Nc2ccccc2)C(c2ccc(OC)cc2)C2OC(=O)c3ccccc32)cc1` (stereo not drawn), the GI50 in [12] was 9.84 µM (inactive); in assay [1] it was > 100 µM (inactive); in assay [13], > 100 µM (inactive); in assay [2], 37.8 µM (inactive); in [4] it was 99.3 µM (inactive); in assay [14], > 100 µM (inactive). Moreover, the GI50 in assay [5] is 48.9 µM (inactive); in [6], 90.6 µM (inactive); in assay [8] it was 97.1 µM (inactive); in [9], > 100 µM (inactive); in assay [10], 95.7 µM (inactive).
Consider `COC(=O)c1cc(Cl)ccc1NC(=O)c1ccc([N+](=O)[O-])cc1`, for which the GI50 in [12] is 20.3 µM (inactive); in assay [1] it was 23 µM (inactive); in assay [13], 15.2 µM (inactive); in assay [2], 31.8 µM (inactive); in assay [3] it was > 100 µM (inactive); in assay [4] it was 19.6 µM (inactive). Moreover, the GI50 in assay [14] is 15.9 µM (inactive); in assay [5], 6.73 µM (inactive); in assay [6] it was 14.8 µM (inactive); in assay [16], 15.6 µM (inactive); in assay [7], 28.2 µM (inactive); in assay [8], 5.97 µM (inactive). The GI50 in assay [9] is 7 µM (inactive); in [10], 42.3 µM (inactive); in [11], 16.9 µM (inactive).
Regarding `COc1c(CC(=O)c2ccccc2)c2ccccc2n1C(C)=O`, the GI50 in [13] was > 100 µM (inactive); in [2] it was 35.6 µM (inactive); in [4] it was > 100 µM (inactive); in assay [14] it was 91 µM (inactive); in [5], > 100 µM (inactive); in [6], > 100 µM (inactive). Besides, the GI50 in [16], in assay [17], in assay [7], in assay [8], in [9] and in assay [10] was > 100 µM (inactive) each time.
`O=C1N(Cl)C(=O)C(c2ccc(Cl)cc2)(c2ccc(Cl)cc2)N1Cl`: the GI50 in assay [12] was > 100 µM (inactive); in assay [1], > 100 µM (inactive); in assay [2], > 100 µM (inactive); in assay [4], 58.6 µM (inactive); in [14], 71.4 µM (inactive); in assay [5] it was > 100 µM (inactive). Besides, the GI50 was 78.9 µM (inactive) in assay [6]; > 100 µM (inactive) in assay [16]; > 100 µM (inactive) in [17]; > 100 µM (inactive) in assay [7]; 55.8 µM (inactive) in [8]; > 100 µM (inactive) in assay [9]. The results for the GI50 in [10] and in assay [11] were 52.2 µM (inactive) and > 100 µM (inactive), respectively.
Regarding `CCCN1CN(C(C(=O)N[C@@H]2C(=O)N3C(C(=O)O)=C(C)CSC23)c2ccc(O)cc2)CSC1=S` (stereo partly drawn), the GI50 in [1], in assay [13], in assay [2], in [3], in [4] and in assay [14] was > 100 µM (inactive) throughout. The GI50 in assay [15] was 76.6 µM (inactive); in [5] it was > 100 µM (inactive); in [6], > 100 µM (inactive); in assay [16] it was 45.5 µM (inactive); in assay [17], > 100 µM (inactive); in assay [7] it was > 100 µM (inactive). The GI50 in assay [8] is > 100 µM (inactive); in assay [9], 97.5 µM (inactive); in assay [10], 63.1 µM (inactive); in assay [11], > 100 µM (inactive).
For the compound `CC(C)(C)c1cc(C(O)(C(F)(F)F)C(F)(F)F)c2c(c1)C(C(F)(F)F)(C(F)(F)F)OC(c1ccccc1)(C(C)(C)C)N2` (stereo not drawn), the GI50 in [12] was 3.24 µM (inactive); in [1], 7.06 µM (inactive); in assay [2], 5.18 µM (inactive); in [3], 18.8 µM (inactive); in assay [4], > 100 µM (inactive); in assay [14], 6.05 µM (inactive). Further, the GI50 was 2.82 µM (inactive) in [5]; 3.4 µM (inactive) in [6]; 0.637 µM (active) in assay [16]; < 0.01 µM (active) in [17]; 9.16 µM (inactive) in assay [7]; 3.7 µM (inactive) in assay [8]. Also, the GI50 was 3.3 µM (inactive) in assay [9], 2.65 µM (inactive) in [10] and 3.02 µM (inactive) in assay [11].
For the compound `O=C1C(Cl)C(c2ccc(Cl)cc2)N1n1cnc2ccccc2c1=O` (stereo not drawn), the GI50 is > 100 µM (inactive) in [12]; > 100 µM (inactive) in [1]; > 100 µM (inactive) in assay [13]; 14.5 µM (inactive) in assay [2]; > 100 µM (inactive) in assay [3]; > 100 µM (inactive) in [4]. Moreover, the GI50 was > 100 µM (inactive) in [14]; 70.5 µM (inactive) in [15]; 26.2 µM (inactive) in assay [5]; > 100 µM (inactive) in assay [6]; > 100 µM (inactive) in [16]; > 100 µM (inactive) in assay [7]. The GI50 in assay [8], in assay [9], in assay [10] and in assay [11] was > 100 µM (inactive) in each case.
As for `CNC(=O)C(C)Oc1ccc(OCC2CCCCC2)cc1` (stereo not drawn), the GI50 was > 100 µM (inactive) in assay [12]; 25.3 µM (inactive) in assay [1]; > 100 µM (inactive) in [4]; > 100 µM (inactive) in assay [14]; > 100 µM (inactive) in assay [15]; 96.2 µM (inactive) in assay [5]. Besides, the GI50 is 86.3 µM (inactive) in assay [6]; 26.4 µM (inactive) in [16]; > 100 µM (inactive) in assay [7]; > 100 µM (inactive) in assay [8]; > 100 µM (inactive) in assay [9]; 50.4 µM (inactive) in assay [10]. Besides, the GI50 in assay [11] was > 100 µM (inactive).
As for `CCC1(N=[N+]=[N-])C(=O)Nc2cc(C)ccc2C1=O` (stereo not drawn), the GI50 in assay [1] was 68.1 µM (inactive); in assay [13] it was > 100 µM (inactive); in assay [2], 42.7 µM (inactive); in assay [3], > 100 µM (inactive); in assay [4] it was > 100 µM (inactive); in assay [14] it was > 100 µM (inactive). For the same compound, the GI50 is 86.5 µM (inactive) in [15]; > 100 µM (inactive) in assay [5]; 89.9 µM (inactive) in assay [6]; 45.6 µM (inactive) in assay [16]; 46.1 µM (inactive) in assay [17]; > 100 µM (inactive) in assay [7]. Besides, the GI50 in assay [8] was 22.3 µM (inactive); in [9], 96.2 µM (inactive); in assay [10], > 100 µM (inactive); in [11] it was > 100 µM (inactive).
Take `CC/C(=N/O)C(C)C(=O)CCC(=O)Nc1ccc(Cl)cc1` (stereo not drawn): the GI50 in assay [12], in assay [1], in [2], in assay [3], in assay [4] and in assay [14] was > 100 µM (inactive) each time. Moreover, the GI50 is > 100 µM (inactive) in assay [15]; 49.9 µM (inactive) in [5]; > 100 µM (inactive) in assay [6]; > 100 µM (inactive) in [16]; > 100 µM (inactive) in assay [7]; 68.4 µM (inactive) in assay [8]. The GI50 in [9], in [10] and in assay [11] was > 100 µM (inactive) each time.
On to `COc1cccc2c1[C@]1(O)C(O)CCCC21` (stereo partly drawn), for which the GI50 was > 100 µM (inactive) in assay [12]; > 100 µM (inactive) in assay [1]; > 100 µM (inactive) in assay [13]; > 10 µM (inactive) in [2]; > 100 µM (inactive) in assay [3]; > 100 µM (inactive) in assay [4]. Moreover, the GI50 in assay [14], in assay [15], in [5], in assay [6], in assay [16] and in assay [7] was > 100 µM (inactive) throughout. In addition, the GI50 in assay [8], in assay [9], in assay [10] and in assay [11] was > 100 µM (inactive) in each case.
